# Laboratory results taken from patent US8158656B2, “2-indolinone derivatives as multi-target protein kinase inhibitors and histone deacetylase inhibitors” (Shenzhen Chipscreen Biosciences Ltd., priority 2008, dated 2012).
# What was measured:
# [1] = tested on: Bel-7402; assay: Tumor cell proliferation (MTS), Bel-7402; type: cell-based; details: Homo sapiens, Bel-7402, 72 hours
# Procedure: (§1) Measurement of in vivo cell proliferation:
# (§2) Tumor cells were trypsinized and plated into 96-well plates at 3,000 per well and incubated in complete medium with 10% FBS for 24 hours. Compounds were added over a final concentration range of 100 μmol/L to 100 nmol/L in 0.1% DMSO and incubated for 72 hours in complete medium. The effects on proliferation were determined by addition of MTS reagent (Promega) according to the instruction, incubation for 2 hours at 37° C. in CO2 incubator, and record the absorbance at 490 nm using an ELISA plate reader.
# [2] = molecular target: VEGFR2 (Homo sapiens, UniProt P35968); assay: VEGF receptor kinase ELISA bioassay; type: biochemical; details: ELISA kinase assay, 200 μM ATP
# [3] = tested on: A549; assay: Tumor cell proliferation (MTS), A549; type: cell-based; details: Homo sapiens, A549, 72 hours
# Procedure: as §1, §2
# [4] = tested on: Jurkat; assay: Tumor cell proliferation (MTS), Jurkat; type: cell-based; details: Homo sapiens, 72 hours
# Procedure: as §1, §2
# [5] = molecular target: T1, HDAC3 (Homo sapiens, UniProt O15379); assay: GDF11 reporter assay in HeLa cells; type: cell-based; details: relative to CS055 at 3 μM
# T1 construct: endogenous in cells; host or cells: HeLa
# Procedure: HDAC subtype selectivity inhibition assay of tested compounds was carried out by several reporter gene assays experiments. Briefly, HeLa cells were seeded in 96-well plates the day before transfection to give a confluence of 50-80%. Cells were transfected with one of reporter gene plasmid containing a promoter sequence or response element upstream of a luciferase gene construct using FuGene6 transfection reagent according to the manufacturer's instruction (Roche). The promoters or response elements including p21-promoter, gdf11-promoter, MEF-binding element (MEF2), Nur77-promoter were fused upstream to the luciferase gene reporter construct. For normalizing the transfection efficiency, a GFP expression plasmid was cotransfected. Cells were allowed to express protein for 24 hours followed by addition of individual compounds or the vehicle (DMSO). 24 hours later the cells were harvested, and the luciferase assay and GFP assay were performed using corresponding assay kits according to the manufacturer's instructions (Promega).
# [6] = tested on: Mo7e cells (SCF dependent); assay: c-Kit ligand (SCF) dependent cell proliferation; type: cell-based; details: SCF 50 ng/ml, 72 hours, MTS
# Procedure: SCF dependent cell proliferation:
# Mo7e cells (SCF dependent) were plated into 96-well plates at 15000 per well and incubated in 1640 medium with 10% FBS and SCF (50 ng/ml) for 24 hours. Compounds were added and incubated for 72 hours at 37° C. in CO2 incubator. The effects on proliferation were determined by addition of MTS reagent (Promega) according to the instruction, incubation for 2 hours at 37° C. in CO2 incubator, and record the absorbance at 490 nm using an ELISA plate reader.
# [7] = molecular target: T2, c-Kit (Homo sapiens, UniProt P10721); assay: c-KIT kinase ELISA bioassay; type: biochemical; details: ELISA kinase assay, 20 μM ATP
# T2 construct: purchased Cell Signaling
# Procedure: This assay is used to measure in vitro kinase activity of c-KIT in an ELISA assay.
# • 1. Streptavidin coated, 96-well, white plate • 2. Phospho-Tyrosine Monoclonal Antibody (P-Tyr-100) (Cell Signaling) • 3. HRP-labeled anti-mouse IgG (Upstate) • 4. HTScan™ Tyrosine Kinase Buffer (4×) • 5. DTT (1000×. 1.25 M) • 6. ATP (10 mM) • 7. KDR (Tyr996) Biotinylated Peptide Substrate (Cell Signaling) • 8. c-KIT Kinase (recombinant, human) (Cell Signaling) • 9. Wash Buffer: 1× PBS, 0.05% Tween-20 (PBS/T) • 10. Bovine Serum Albumin (BSA) • 11. Stop Buffer: 50 mM EDTA pH 8 • 12. Enhanced chemiluminescence (ECL) (Amersham) Procedure for performing the assay in 96-well plate: • 1. Add 10 μl 10 mM ATP to 1.25 ml 6 μM substrate peptide. Dilute the mixture with dH20 to 2.5 ml to make 2× ATP/substrate cocktail ([ATP]=40 μM, [substrate]=3 μm). • 2. Immediately transfer enzyme from −80° C. to ice. Allow enzyme to thaw on ice. • 3. Microcentrifuge briefly at 4° C. to bring liquid to the bottom of the vial. Return immediately to ice. • 4. Add 10 μl of DTT (1.25 M) to 2.5 ml of 4× HTScan™ Tyrosine Kinase Buffer (240 mM HEPES pH 7.5, 20 mM MgCl2, 20 mM MnCl2, 12 μM Na3VO4) to make DTT/Kinase buffer. • 5. Transfer 1.25 ml of DTT/Kinase buffer to enzyme tube to make 4× reaction cocktail ([enzyme]=4 ng/μL in 4× reaction cocktail). • 6. Incubate 12.5 μl of the 4× reaction cocktail with 12.5 μl/well of prediluted compound of interest (usually around 10 μM) for 5 minutes at room temperature. • 7. Add 25 μl of 2× ATP/substrate cocktail to 25 μl/well preincubated reaction cocktail/compound. Final Assay Conditions for a 50 μl Reaction: • 60 mM HEPES pH 7.5 • 5 mM MgCl2 • 5 mM MnCl2 • 3 μM Na3VO4 • 1.25 mM DTT • 20 μM ATP • 1.5 μM peptide • 100 ng c-KIT Kinase • 8. Incubate reaction plate at room temperature for 30 minutes. • 9. Add 50 μl/well Stop Buffer (50 mM EDTA, pH 8) to stop the reaction. • 10. Transfer 25 μl of each reaction and 75 μl dH2O/well to a 96-well streptavidincoated plate and incubate at room temperature for 60 minutes. • 11. Wash three times with 200 μl/well PBS/T • 12. Dilute primary antibody, Phospho-Tyrosine Monoclonal Antibody (P-Tyr-100), 1:1000 in PBS/T with 1% BSA. Add 100 μl/well of primary antibody. • 13. Incubate at room temperature for 60 minutes. • 14. Wash three times with 200 μl/well PBS/T • 15. Dilute HRP labeled anti-mouse IgG 1:500 in PBS/T with 1% BSA. Add 100 μl/well diluted antibody. • 16. Incubate at room temperature for 30 minutes. • 17. Wash five times with 200 μl/well PBS/T. • 18. Add 100 μl/well ECL Solution. • 19. Detect luminescence with appropriate Plate Reader. Flt3 Bioassay
# [8] = tested on: Raji; assay: Tumor cell proliferation (MTS), Raji; type: cell-based; details: Homo sapiens, 72 hours
# Procedure: as §1, §2
# [9] = tested on: HeLa; assay: Tumor cell proliferation (MTS), HeLa; type: cell-based; details: Homo sapiens, 72 hours
# Procedure: as §1, §2
# [10] = tested on: Ramos; assay: Tumor cell proliferation (MTS), Ramos; type: cell-based; details: Homo sapiens, 72 hours
# Procedure: as §1, §2
# VEGFR2, sequence (P35968 807-1356): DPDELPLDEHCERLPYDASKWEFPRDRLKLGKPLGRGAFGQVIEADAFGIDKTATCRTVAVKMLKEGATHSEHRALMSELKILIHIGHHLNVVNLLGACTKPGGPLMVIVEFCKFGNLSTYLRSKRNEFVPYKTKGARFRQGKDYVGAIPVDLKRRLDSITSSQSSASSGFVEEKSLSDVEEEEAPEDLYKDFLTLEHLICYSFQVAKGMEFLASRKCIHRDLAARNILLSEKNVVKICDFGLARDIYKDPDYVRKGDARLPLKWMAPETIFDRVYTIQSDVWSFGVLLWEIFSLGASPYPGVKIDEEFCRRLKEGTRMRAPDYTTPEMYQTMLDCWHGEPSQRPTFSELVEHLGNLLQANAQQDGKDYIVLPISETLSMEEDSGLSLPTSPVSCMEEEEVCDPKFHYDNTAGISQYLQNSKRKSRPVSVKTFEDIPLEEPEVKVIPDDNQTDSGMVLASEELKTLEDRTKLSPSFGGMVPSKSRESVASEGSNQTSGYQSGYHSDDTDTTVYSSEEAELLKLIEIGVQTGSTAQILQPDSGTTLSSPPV
# T1 sequence (O15379 whole entry): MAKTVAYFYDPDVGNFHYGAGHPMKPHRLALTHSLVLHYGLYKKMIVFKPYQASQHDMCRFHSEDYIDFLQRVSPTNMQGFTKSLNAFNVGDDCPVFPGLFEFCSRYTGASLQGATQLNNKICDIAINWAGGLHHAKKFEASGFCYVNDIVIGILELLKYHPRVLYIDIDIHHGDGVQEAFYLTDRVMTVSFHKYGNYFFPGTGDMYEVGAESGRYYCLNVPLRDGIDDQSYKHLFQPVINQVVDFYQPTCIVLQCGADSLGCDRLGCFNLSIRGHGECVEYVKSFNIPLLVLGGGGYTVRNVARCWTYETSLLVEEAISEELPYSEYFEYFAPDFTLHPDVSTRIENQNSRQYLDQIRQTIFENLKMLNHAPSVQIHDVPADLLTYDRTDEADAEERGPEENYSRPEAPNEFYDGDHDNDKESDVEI
# T1 sequence (Q9Y618 whole entry partner): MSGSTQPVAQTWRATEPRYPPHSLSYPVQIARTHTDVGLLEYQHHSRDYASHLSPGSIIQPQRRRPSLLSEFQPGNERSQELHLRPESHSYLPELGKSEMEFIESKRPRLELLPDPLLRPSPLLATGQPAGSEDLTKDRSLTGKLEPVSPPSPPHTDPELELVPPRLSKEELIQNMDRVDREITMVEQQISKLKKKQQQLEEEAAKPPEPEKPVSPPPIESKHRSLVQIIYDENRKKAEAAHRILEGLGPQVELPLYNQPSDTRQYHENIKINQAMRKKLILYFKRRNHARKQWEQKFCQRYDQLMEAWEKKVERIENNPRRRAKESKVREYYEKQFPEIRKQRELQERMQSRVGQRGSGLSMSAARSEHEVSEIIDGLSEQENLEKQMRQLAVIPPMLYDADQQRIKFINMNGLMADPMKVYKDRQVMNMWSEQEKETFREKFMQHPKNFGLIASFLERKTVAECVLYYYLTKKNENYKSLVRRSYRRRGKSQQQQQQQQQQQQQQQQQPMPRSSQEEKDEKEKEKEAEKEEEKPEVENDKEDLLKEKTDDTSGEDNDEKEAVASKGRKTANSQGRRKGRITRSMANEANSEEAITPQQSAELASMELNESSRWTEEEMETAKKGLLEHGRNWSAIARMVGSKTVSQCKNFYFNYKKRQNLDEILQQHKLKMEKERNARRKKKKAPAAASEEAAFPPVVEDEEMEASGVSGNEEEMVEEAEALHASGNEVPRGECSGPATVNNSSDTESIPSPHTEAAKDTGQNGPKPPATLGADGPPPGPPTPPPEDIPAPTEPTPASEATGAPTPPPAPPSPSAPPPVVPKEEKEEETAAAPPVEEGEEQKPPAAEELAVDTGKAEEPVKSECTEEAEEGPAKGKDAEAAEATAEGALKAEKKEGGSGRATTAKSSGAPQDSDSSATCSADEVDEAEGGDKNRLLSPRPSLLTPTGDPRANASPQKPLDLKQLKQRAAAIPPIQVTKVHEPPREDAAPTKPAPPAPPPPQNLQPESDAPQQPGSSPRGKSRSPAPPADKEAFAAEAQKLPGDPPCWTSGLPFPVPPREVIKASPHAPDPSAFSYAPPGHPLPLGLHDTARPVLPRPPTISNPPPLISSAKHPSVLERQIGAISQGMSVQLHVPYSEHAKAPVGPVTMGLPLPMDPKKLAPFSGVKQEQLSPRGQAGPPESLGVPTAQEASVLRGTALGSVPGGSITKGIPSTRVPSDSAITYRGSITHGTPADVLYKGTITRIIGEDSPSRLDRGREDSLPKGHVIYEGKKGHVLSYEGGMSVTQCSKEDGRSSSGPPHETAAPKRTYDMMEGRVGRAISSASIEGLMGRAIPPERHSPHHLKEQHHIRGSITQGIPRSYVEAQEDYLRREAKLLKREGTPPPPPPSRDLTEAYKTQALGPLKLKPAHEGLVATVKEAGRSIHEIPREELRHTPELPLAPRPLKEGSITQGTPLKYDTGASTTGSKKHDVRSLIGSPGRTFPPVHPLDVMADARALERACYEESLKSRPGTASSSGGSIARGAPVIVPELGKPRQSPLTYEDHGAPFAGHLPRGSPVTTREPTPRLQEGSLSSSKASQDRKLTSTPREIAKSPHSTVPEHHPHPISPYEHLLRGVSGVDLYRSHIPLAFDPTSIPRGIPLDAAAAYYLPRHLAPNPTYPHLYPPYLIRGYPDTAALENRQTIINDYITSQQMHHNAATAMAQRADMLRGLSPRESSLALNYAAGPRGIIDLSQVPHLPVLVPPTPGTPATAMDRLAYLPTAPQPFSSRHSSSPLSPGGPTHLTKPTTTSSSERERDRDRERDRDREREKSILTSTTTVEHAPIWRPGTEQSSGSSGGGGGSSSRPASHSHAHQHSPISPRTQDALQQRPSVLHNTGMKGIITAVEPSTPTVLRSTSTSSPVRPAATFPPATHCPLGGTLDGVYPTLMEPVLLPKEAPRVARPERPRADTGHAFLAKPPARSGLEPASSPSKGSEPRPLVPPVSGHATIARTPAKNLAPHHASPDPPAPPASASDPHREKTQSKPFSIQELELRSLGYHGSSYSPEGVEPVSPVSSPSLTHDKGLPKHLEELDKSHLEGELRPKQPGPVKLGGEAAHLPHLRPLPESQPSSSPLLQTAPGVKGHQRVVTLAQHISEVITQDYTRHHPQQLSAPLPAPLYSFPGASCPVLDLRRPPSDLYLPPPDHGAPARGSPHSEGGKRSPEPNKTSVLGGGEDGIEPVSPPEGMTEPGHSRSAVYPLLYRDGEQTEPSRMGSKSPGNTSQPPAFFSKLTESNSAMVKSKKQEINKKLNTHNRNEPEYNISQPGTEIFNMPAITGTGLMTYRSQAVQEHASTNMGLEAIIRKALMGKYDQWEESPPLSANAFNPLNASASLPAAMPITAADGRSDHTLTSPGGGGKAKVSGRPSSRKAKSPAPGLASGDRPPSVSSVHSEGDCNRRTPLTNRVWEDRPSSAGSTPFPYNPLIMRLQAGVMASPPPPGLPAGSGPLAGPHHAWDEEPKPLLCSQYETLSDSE
# T2 sequence (P10721 26-976): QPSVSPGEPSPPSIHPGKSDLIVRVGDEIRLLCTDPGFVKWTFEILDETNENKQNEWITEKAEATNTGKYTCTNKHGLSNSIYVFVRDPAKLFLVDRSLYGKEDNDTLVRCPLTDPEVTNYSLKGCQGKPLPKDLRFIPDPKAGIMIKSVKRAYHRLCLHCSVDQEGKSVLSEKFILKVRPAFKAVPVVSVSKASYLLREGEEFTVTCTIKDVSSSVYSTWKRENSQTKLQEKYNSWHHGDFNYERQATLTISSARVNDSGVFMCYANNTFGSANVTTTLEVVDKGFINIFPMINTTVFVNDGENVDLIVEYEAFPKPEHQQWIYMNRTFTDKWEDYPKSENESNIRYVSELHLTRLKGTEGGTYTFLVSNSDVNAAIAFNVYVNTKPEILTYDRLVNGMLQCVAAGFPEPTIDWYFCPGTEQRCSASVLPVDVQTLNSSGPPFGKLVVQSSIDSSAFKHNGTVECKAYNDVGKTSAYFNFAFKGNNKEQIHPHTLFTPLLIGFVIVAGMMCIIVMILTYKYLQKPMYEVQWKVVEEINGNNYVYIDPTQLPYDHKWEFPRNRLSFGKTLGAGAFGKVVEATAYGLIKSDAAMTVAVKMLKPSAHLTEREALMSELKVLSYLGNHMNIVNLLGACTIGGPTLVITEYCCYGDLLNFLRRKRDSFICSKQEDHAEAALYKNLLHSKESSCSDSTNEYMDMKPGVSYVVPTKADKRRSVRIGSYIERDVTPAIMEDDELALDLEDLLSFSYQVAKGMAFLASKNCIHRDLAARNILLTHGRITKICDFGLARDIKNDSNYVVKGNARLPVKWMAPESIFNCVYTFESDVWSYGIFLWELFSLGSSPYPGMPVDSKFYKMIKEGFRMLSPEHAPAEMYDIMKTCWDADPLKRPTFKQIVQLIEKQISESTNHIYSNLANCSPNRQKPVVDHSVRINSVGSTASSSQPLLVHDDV
GI50 [1] [µM],IC50 [2] [nM],GI50 [3] [µM],GI50 [4] [µM],HDAC3 (GDF11 reporter assay) % Max Resp of CS055 at 3 μM [5] [%],IC50 [7] [nM],GI50 [8] [µM],GI50 [9] [µM],GI50 [10] [µM],SMILES,GI50 [6] [nM]
> 60,> 1000,> 60,> 60,8.3,> 1000,> 60,> 60,> 60,"Cc1[nH]c(/C=N/N=C2\C(=O)Nc3ccc(F)cc32)c(C)c1C(=O)NCCCCNc1ccc(C(=O)Nc2ccccc2N)cn1 [Example 10, N-(2-aminophenyl)-6-(4-(2-(((5-fluoro-2-oxoindolin-3-ylidene)hydrazono)-methyl)-3,5-dimethyl-1H-pyrrole-4-carboxamido)butylamino)nicotinamide]",> 1000
> 60,12,> 60,> 60,2.4,> 1000,> 60,> 60,> 60,"Cc1[nH]c(/C=N/N=C2\C(=O)Nc3ccc(F)cc32)c(C)c1C(=O)NCCNc1ccc(C(=O)Nc2ccccc2N)cn1 [Example 4, N-(2-aminophenyl)-6-(2-(2-(((5-fluoro-2-oxoindolin-3-ylidene)hydrazono)-methyl)-3,5-dimethyl-1H-pyrrole-4-carboxamido)ethylamino)nicotinamide]",> 1000
> 60,72,> 60,> 60,1.8,242,> 60,> 60,> 60,"Cc1[nH]c(/C=C2\C(=O)Nc3ccc(F)cc32)c(C)c1C(=O)NCCCNc1ccc(C(=O)Nc2ccc(F)cc2N)cn1 [Example 16, (Z)-N-(2-amino-4-fluorophenyl)-6-(3-(2-((5-fluoro-2-oxoindolin-3-ylidene)-methyl)-3,5-dimethyl-1H-pyrrole-4-carboxamido)propylamino)nicotinamide]",105
